Assay: xn = mol fraction of the nth substance listed

c1ccc(Oc2ccccc2)cc1 + CCOc1ccccc1
298.15 K, 101 kPa
Settings | viscosity [mPa·s]
x2 = 0.1367 | 3.264
x2 = 0.2072 | 3.003
x2 = 0.3253 | 2.63
x2 = 0.3731 | 2.455
x2 = 0.5105 | 2.096
x2 = 0.6002 | 1.862
x2 = 0.7037 | 1.632
x2 = 0.8127 | 1.451
x2 = 0.9006 | 1.309

Nc1ccc(S(N)(=O)=O)cc1 + O
viscosity [mPa·s], 101 kPa
Settings | x1 = 0.0001938 | x1 = 0.000331 | x1 = 0.0004378 | x1 = 0.0004556 | x1 = 0.000456 | x1 = 0.0005923 | x1 = 0.0007136
298.15 K | 0.8931 | 0.895 | 0.8965 | 0.897 | – | 0.899 | 0.9008
308.15 K | 0.7207 | 0.7224 | 0.7234 | 0.724 | – | 0.7254 | –
318.15 K | 0.5965 | 0.5979 | 0.5992 | – | 0.5993 | 0.6007 | 0.6015

c1ccc(Oc2ccccc2)cc1 + c1ccc(-c2ccccc2)cc1
Settings | viscosity [mPa·s]
293.15 K, 101 kPa, x1 = 0.705 | 4.35
298.15 K, 101 kPa, x1 = 0.705 | 3.78
298.15 K, 101 kPa, x1 = 0.85 | 3.71
298.95 K, 101.33 kPa, x1 = 0.715 | 3.66
303.15 K, 101 kPa, x1 = 0.85 | 3.32
308.15 K, 101 kPa, x1 = 0.705 | 2.94
308.15 K, 101 kPa, x1 = 0.85 | 2.93
309.85 K, 101.33 kPa, x1 = 0.715 | 2.84
313.15 K, 101 kPa, x1 = 0.55 | 2.63
313.15 K, 101 kPa, x1 = 0.705 | 2.61
313.15 K, 101 kPa, x1 = 0.85 | 2.61
314.15 K, 101.33 kPa, x1 = 0.715 | 2.57
318.65 K, 101.33 kPa, x1 = 0.715 | 2.4
321.95 K, 101.33 kPa, x1 = 0.715 | 2.29

CCOC(=O)OCC + Cc1ccc(C)cc1
viscosity [mPa·s]
Settings | 293.15 K | 298.15 K | 303.15 K | 323.15 K
101 kPa, x1 = 0.0997 | 0.6494 | 0.6068 | 0.5681 | 0.4546
101 kPa, x1 = 0.1509 | 0.6571 | 0.6141 | 0.5733 | 0.4578
101 kPa, x1 = 0.2121 | 0.6663 | 0.6229 | 0.5814 | 0.4633
101 kPa, x1 = 0.2979 | 0.6785 | 0.6347 | 0.5918 | 0.4704
101 kPa, x1 = 0.3942 | 0.693 | 0.6486 | 0.6058 | 0.4794
101 kPa, x1 = 0.495 | 0.7081 | 0.6627 | 0.618 | 0.4891
101 kPa, x1 = 0.5955 | 0.7239 | 0.6787 | 0.6309 | 0.4973
101 kPa, x1 = 0.7004 | 0.7423 | 0.6948 | 0.6471 | 0.508
101 kPa, x1 = 0.8 | 0.7603 | 0.7126 | 0.6639 | 0.5178
101 kPa, x1 = 0.8891 | 0.7782 | 0.7304 | 0.6786 | 0.5292
101.3 kPa, x1 = 0.1027 | – | 0.607 | – | –
101.3 kPa, x1 = 0.1721 | – | 0.615 | – | –
101.3 kPa, x1 = 0.2449 | – | 0.622 | – | –
101.3 kPa, x1 = 0.3566 | – | 0.636 | – | –
101.3 kPa, x1 = 0.4208 | – | 0.643 | – | –
101.3 kPa, x1 = 0.4919 | – | 0.658 | – | –
101.3 kPa, x1 = 0.6427 | – | 0.68 | – | –
101.3 kPa, x1 = 0.716 | – | 0.687 | – | –
101.3 kPa, x1 = 0.7162 | – | 0.687 | – | –
101.3 kPa, x1 = 0.8043 | – | 0.701 | – | –
101.3 kPa, x1 = 0.9158 | – | 0.723 | – | –

Reference: the CheMixHub viscosity set
